Reference: the NIST ThermoML archive (doi:10.1021/je0602418)
“And” between values parts separate entries of the source, which are not always exact repeats. Identical values can stand only once.

Details: for Critical pressure / Critical temperature: pulse heating method

COC(=O)CC(=O)OC [dimethyl 1,3-propanedioate]
Liquid, Transpiration method
Details	vapor or sublimation pressure [kPa]
278.2 K	0.0117
281.2 K	0.01507
284.3 K	0.01969
287.2 K	0.02593
290.8 K	0.03523
293.2 K	0.04253
296.1 K	0.0533
298 K	0.06386
299.4 K	0.06974
302.2 K	0.08729
303.3 K	0.09423
305.3 K	0.1063
308.4 K	0.1313
311.2 K	0.165
314.3 K	0.2046

Liquid
Details	Critical pressure [kPa]	Critical temperature [K]
–	3530	649

COC(=O)CCC(=O)OC [dimethyl 1,4-butanedioate]
Liquid, Transpiration method
Details	vapor or sublimation pressure [kPa]
286.4 K	0.01062
289.4 K	0.01389
292.3 K	0.01793
295.2 K	0.02339
298.1 K	0.0292
301.1 K	0.03798
304.2 K	0.04988
307.2 K	0.06242
310.2 K	0.07685
313.2 K	0.09759
316.2 K	0.1187
319.2 K	0.1462
322.3 K	0.1846
325.3 K	0.2206
328.3 K	0.2686
331.4 K	0.3232
334.5 K	0.395
337.5 K	0.4891
340.6 K	0.6151

Liquid
Details	Critical pressure [kPa]	Critical temperature [K]
–	3060	662

COC(=O)CCCCC(=O)OC [dimethyl 1,6-hexanedioate]
Liquid
Details	vapor or sublimation pressure
294.2 K	0.00284 kPa
297.1 K	0.00356 kPa
297.4 K	0.00377 kPa
298.1 K	0.00391 kPa
300.6 K	0.00505 kPa
303.1 K	0.00619 kPa
303.3 K	0.00649 kPa
305.4 K	0.00775 kPa
308.1 K	0.00948 kPa and 0.00946 kPa
311.6 K	0.01308 kPa
313.2 K	0.01501 kPa
314.4 K	0.01648 kPa
317.2 K	0.02059 kPa
318.2 K	0.02254 kPa
318.5 K	0.02198 kPa
320.2 K	0.02543 kPa
323.3 K	0.03244 kPa
323.4 K	0.03434 kPa
326.2 K	0.03996 kPa
328.3 K	0.05027 kPa
332.2 K	0.06088 kPa
333.2 K	0.07135 kPa
334.3 K	0.07203 kPa
337.4 K	0.08819 kPa
338.5 K	0.1013 kPa and 0.1038 kPa
340.2 K	0.1114 kPa
343.5 K	0.1393 kPa and 0.1369 kPa
348.5 K	0.1893 kPa
348.6 K	0.2004 kPa
351.7 K	0.2406 kPa
353.6 K	0.2604 kPa
358.6 K	0.3551 kPa and 0.3732 kPa
361.7 K	0.446 kPa
363.7 K	0.4731 kPa
368.7 K	0.6312 kPa and 0.676 kPa
369.7 K	0.6863 kPa
373.8 K	0.8347 kPa and 0.8876 kPa

Liquid
Details	Critical pressure [kPa]	Critical temperature [K]
–	2500	692

COC(=O)CCCCCC(=O)OC [dimethyl 1,7-heptanedioate]
Liquid, Transpiration method
Details	vapor or sublimation pressure [kPa]
291.3 K	0.0013
293.3 K	0.00161
298.3 K	0.00264
303.2 K	0.00423
308.2 K	0.00693
313.2 K	0.01073
318.2 K	0.01734
323.2 K	0.02558
328.2 K	0.03778
333.1 K	0.0547
338.2 K	0.0784
343.2 K	0.1123
348.1 K	0.1618
353.1 K	0.2251

Liquid
Details	Critical pressure [kPa]	Critical temperature [K]
–	2370	711

COC(=O)C(=O)OC [dimethyl ethanedioate]
Transpiration method
Details	vapor or sublimation pressure [kPa]
293.3 K, Crystal	0.04995
296.3 K, Crystal	0.06801
298.2 K, Crystal	0.07959
301.2 K, Crystal	0.1046
303.2 K, Crystal	0.1298
306.2 K, Crystal	0.178
308.2 K, Crystal	0.2104
311.2 K, Crystal	0.2873
313.2 K, Crystal	0.3372
316.2 K, Crystal	0.4466
318.3 K, Crystal	0.5545
319.2 K, Crystal	0.6006
321.2 K, Crystal	0.7191
325.3 K, Crystal	0.9657
330.4 K, Liquid	1.399
333.2 K, Liquid	1.612
335.2 K, Liquid	1.819
337.2 K, Liquid	2.022
340.3 K, Liquid	2.395
343.2 K, Liquid	2.841
345.3 K, Liquid	3.144
346.2 K, Liquid	3.25
349.2 K, Liquid	3.905
350.4 K, Liquid	4.141
352.2 K, Liquid	4.479
355.5 K, Liquid	5.325
357.2 K, Liquid	5.707
359.2 K, Liquid	6.28
360.6 K, Liquid	6.526
362.2 K, Liquid	7.181
365.2 K, Liquid	8.422

Liquid
Details	Critical pressure [kPa]	Critical temperature [K]
–	4060	639

COC(=O)CCCCCCCC(=O)OC [dimethyl nonanedioate]
Liquid
Details	vapor or sublimation pressure
298.1 K	0.00019 kPa
303.1 K	0.00028 kPa
308.1 K	0.00054 kPa
313.2 K	0.0008 kPa and 0.00084 kPa
318.2 K	0.00138 kPa and 0.00131 kPa
320.2 K	0.00167 kPa and 0.00164 kPa
323.3 K	0.00226 kPa
323.4 K	0.00228 kPa
325.3 K	0.00278 kPa
328.3 K	0.00335 kPa and 0.00362 kPa
330.8 K	0.00466 kPa
333.4 K	0.00549 kPa and 0.00561 kPa
335.9 K	0.00711 kPa
338.4 K	0.00771 kPa and 0.00858 kPa
341 K	0.01011 kPa
343.4 K	0.01171 kPa
343.8 K	0.01311 kPa
348.5 K	0.01757 kPa
348.6 K	0.0185 kPa
351.1 K	0.02169 kPa
353.6 K	0.02548 kPa and 0.02436 kPa and 0.02518 kPa
358.6 K	0.03663 kPa
358.7 K	0.03635 kPa
360.2 K	0.04123 kPa
363.7 K	0.05391 kPa and 0.05451 kPa
366.2 K	0.0656 kPa
368.9 K	0.07601 kPa and 0.08031 kPa
371.3 K	0.08918 kPa and 0.08695 kPa
373.8 K	0.1016 kPa and 0.1065 kPa

COC(=O)CCCCCCC(=O)OC [dimethyl octanedioate]
Liquid, Transpiration method
Details	vapor or sublimation pressure [kPa]
293.3 K	0.00062
295.3 K	0.00077
298.3 K	0.00105
303.2 K	0.00169
308.3 K	0.00273
313.2 K	0.00451
318.1 K	0.00698
323.1 K	0.01107
328.1 K	0.01684
333.1 K	0.02524
338.1 K	0.03923
343 K	0.05566
348.1 K	0.08123
352.1 K	0.1083

Liquid
Details	Critical pressure [kPa]	Critical temperature [K]
–	2300	723

COC(=O)CCCC(=O)OC [dimethyl pentanedioate]
Liquid
Details	vapor or sublimation pressure
283.7 K	0.00275 kPa
286.3 K	0.00357 kPa
288.4 K	0.0043 kPa
290.5 K	0.00564 kPa
293.2 K	0.00758 kPa
293.3 K	0.00747 kPa
295.6 K	0.00958 kPa
296.2 K	0.00984 kPa
298.2 K	0.01214 kPa
298.4 K	0.01204 kPa
300.3 K	0.01479 kPa
303.2 K	0.01881 kPa
303.3 K	0.0193 kPa
305.4 K	0.02301 kPa
306.2 K	0.02388 kPa
308.2 K	0.02904 kPa
309.2 K	0.03102 kPa
310.2 K	0.03348 kPa
312.1 K	0.03995 kPa
313.2 K	0.04146 kPa
313.5 K	0.04323 kPa
315.2 K	0.05031 kPa
315.5 K	0.05126 kPa
316.2 K	0.05285 kPa
318.1 K	0.06049 kPa
318.3 K	0.06276 kPa
319.2 K	0.0664 kPa
320.2 K	0.07343 kPa
320.3 K	0.06968 kPa
321.4 K	0.07692 kPa
323.2 K	0.09072 kPa
323.3 K	0.08542 kPa and 0.09398 kPa
325.2 K	0.1033 kPa and 0.1021 kPa
327.1 K	0.1263 kPa
328.3 K	0.1276 kPa
329.2 K	0.148 kPa
330.2 K	0.1428 kPa
331.3 K	0.1646 kPa
333.1 K	0.1752 kPa
333.2 K	0.1798 kPa
335.3 K	0.1977 kPa and 0.2051 kPa
338.3 K	0.2474 kPa and 0.2598 kPa
340.2 K	0.2719 kPa
341.3 K	0.3017 kPa
343.1 K	0.3382 kPa
343.2 K	0.3425 kPa
345.2 K	0.3651 kPa
348.1 K	0.4368 kPa

Liquid
Details	Critical pressure [kPa]	Critical temperature [K]
–	2770	682

COC(=O)CCCCCCCCC(=O)OC [dimethyl sebacate]
Liquid
Details	vapor or sublimation pressure [kPa]
304.1 K	0.00014
308.1 K	0.0002
313.2 K	0.00036
318.2 K	0.00059
323.4 K	0.00101
328.3 K	0.00162
333.4 K	0.0025
338.4 K	0.00388
343.5 K	0.00594
348.2 K	0.00839
353.6 K	0.01405
355.6 K	0.01486
358.6 K	0.01849
363.7 K	0.02808
368.8 K	0.03965
373.8 K	0.05473

Liquid
Details	Critical pressure [kPa]	Critical temperature [K]
–	2080	742
